Experimental data published in PMC9866191, “Novel 9-Benzylaminoacridine Derivatives as Dual Inhibitors of Phosphodiesterase 5 and Topoisomerase II for the Treatment of Colon Cancer” (Molecules, 2023).

Experiments:
CCRF-CEM = assay: NCI-60 one-dose screen; assay type: cell-based; conditions: Homo sapiens, Leukemia panel, single dose 10^−5 M, read-out: Growth inhibition %
786-0 = assay: NCI-60 one-dose screen; assay type: cell-based; conditions: Homo sapiens; 786-0, Renal Cancer panel; single dose 10^−5 M; read-out: Growth inhibition %
CAKI-1 = assay: NCI-60 one-dose screen; assay type: cell-based; conditions: Homo sapiens; CAKI-1, Renal Cancer panel; single dose 10^−5 M; read-out: Growth inhibition %
DU-145 = assay: NCI-60 one-dose screen; assay type: cell-based; conditions: Homo sapiens; DU-145, Prostate Cancer panel; single dose 10^−5 M; read-out: Growth inhibition %
HCT-15 = assay: NCI-60 one-dose screen; assay type: cell-based; conditions: Homo sapiens; HCT-15, Colon Cancer panel; single dose 10^−5 M; read-out: Growth inhibition %
HL-60(TB) = assay: NCI-60 one-dose screen; assay type: cell-based; conditions: Homo sapiens, Leukemia panel, single dose 10^−5 M, read-out: Growth inhibition %
HS 578T = assay: NCI-60 one-dose screen; assay type: cell-based; conditions: Homo sapiens, Breast Cancer panel, single dose 10^−5 M, read-out: Growth inhibition %
HT29 = assay: NCI-60 one-dose screen; assay type: cell-based; conditions: Homo sapiens, HT-29; HT29, Colon Cancer panel; single dose 10^−5 M; read-out: Growth inhibition %
KM12 = assay: NCI-60 one-dose screen; assay type: cell-based; conditions: Homo sapiens; KM12, Colon Cancer panel; single dose 10^−5 M; read-out: Growth inhibition %
MCF7 = assay: NCI-60 one-dose screen; assay type: cell-based; conditions: Homo sapiens; MCF7, Breast Cancer panel; single dose 10^−5 M; read-out: Growth inhibition %
MDA-MB-435 = assay: NCI-60 one-dose screen; assay type: cell-based; conditions: Homo sapiens; MDA-MB-435, Melanoma panel; single dose 10^−5 M; read-out: Growth inhibition %
MDA-MB-468 = assay: NCI-60 one-dose screen; assay type: cell-based; conditions: Homo sapiens; MDA-MB-468, Breast Cancer panel; single dose 10^−5 M; read-out: Growth inhibition %
NCI-H322M = assay: NCI-60 one-dose screen; assay type: cell-based; conditions: Homo sapiens, Non-small cell lung panel, single dose 10^−5 M, read-out: Growth inhibition %
NCI/ADR-RES = assay: NCI-60 one-dose screen; assay type: cell-based; conditions: Homo sapiens, Ovarian Cancer panel, single dose 10^−5 M, read-out: Growth inhibition %
OVCAR-3 = assay: NCI-60 one-dose screen; assay type: cell-based; conditions: Homo sapiens; OVCAR-3, Ovarian Cancer panel; single dose 10^−5 M; read-out: Growth inhibition %
OVCAR-5 = assay: NCI-60 one-dose screen; assay type: cell-based; conditions: Homo sapiens; OVCAR-5, Ovarian Cancer panel; single dose 10^−5 M; read-out: Growth inhibition %
PC-3 = assay: NCI-60 one-dose screen; assay type: cell-based; conditions: Homo sapiens; PC-3, Prostate Cancer panel; single dose 10^−5 M; read-out: Growth inhibition %
RPMI-8226 = assay: NCI-60 one-dose screen; assay type: cell-based; conditions: Homo sapiens; RPMI-8226, Leukemia panel; single dose 10^−5 M; read-out: Growth inhibition %
SF-295 = assay: NCI-60 one-dose screen; assay type: cell-based; conditions: Homo sapiens; SF-295, CNS Cancer panel; single dose 10^−5 M; read-out: Growth inhibition %
SK-MEL-28 = assay: NCI-60 one-dose screen; assay type: cell-based; conditions: Homo sapiens; SK-MEL-28, Melanoma panel; single dose 10^−5 M; read-out: Growth inhibition %
SK-MEL-2 = assay: NCI-60 one-dose screen; assay type: cell-based; conditions: Homo sapiens; SK-MEL-2, Melanoma panel; single dose 10^−5 M; read-out: Growth inhibition %
SNB-19 = assay: NCI-60 one-dose screen; assay type: cell-based; conditions: Homo sapiens; SNB-19, CNS Cancer panel; single dose 10^−5 M; read-out: Growth inhibition %
SR = assay: NCI-60 one-dose screen; assay type: cell-based; conditions: Homo sapiens, Leukemia panel, single dose 10^−5 M, read-out: Growth inhibition %
T-47D = assay: NCI-60 one-dose screen; assay type: cell-based; conditions: Homo sapiens, T47D, Breast Cancer panel, single dose 10^−5 M, read-out: Growth inhibition %
TK-10 = assay: NCI-60 one-dose screen; assay type: cell-based; conditions: Homo sapiens; TK-10, Renal Cancer panel; single dose 10^−5 M; read-out: Growth inhibition %
UACC-62 = assay: NCI-60 one-dose screen; assay type: cell-based; conditions: Homo sapiens; UACC-62, Melanoma panel; single dose 10^−5 M; read-out: Growth inhibition %
SF-268 = assay: NCI-60 one-dose screen; assay type: cell-based; conditions: Homo sapiens; SF-268, CNS Cancer panel; single dose 10^−5 M; read-out: Growth inhibition %
LOX IMVI = assay: NCI-60 one-dose screen; assay type: cell-based; conditions: Homo sapiens, Melanoma panel, single dose 10^−5 M, read-out: Growth inhibition %
IGROV1 = assay: NCI-60 one-dose screen; assay type: cell-based; conditions: Homo sapiens, IGROV-1; IGROV1, Ovarian Cancer panel; single dose 10^−5 M; read-out: Growth inhibition %
HCT-116 = assay: MTT cell proliferation assay, HCT-116; conditions: for % Inhibition at 10 µM: 72 h MTT, means ± SD
CCD-966SK = assay: MTT cell proliferation assay, CCD-966SK; conditions: CCD966SK skin fibroblast; 10 µM; 72 h MTT

| SMILES | inhibition at 10 µM (CCRF-CEM) | inhibition at 10 µM (786-0) | inhibition at 10 µM (CAKI-1) | inhibition at 10 µM (DU-145) | inhibition at 10 µM (HCT-15) | inhibition at 10 µM (HL-60(TB)) | inhibition at 10 µM (HS 578T) | inhibition at 10 µM (HT29) | inhibition at 10 µM (KM12) | inhibition at 10 µM (MCF7) | inhibition at 10 µM (MDA-MB-435) | inhibition at 10 µM (MDA-MB-468) | inhibition at 10 µM (NCI-H322M) | inhibition at 10 µM (NCI/ADR-RES) | inhibition at 10 µM (OVCAR-3) | inhibition at 10 µM (OVCAR-5) | inhibition at 10 µM (PC-3) | inhibition at 10 µM (RPMI-8226) | inhibition at 10 µM (SF-295) | inhibition at 10 µM (SK-MEL-28) | further results |
| --- | --- | --- | --- | --- | --- | --- | --- | --- | --- | --- | --- | --- | --- | --- | --- | --- | --- | --- | --- | --- | --- |
| Fc1cccc(CNc2c3ccccc3nc3ccccc23)c1 [Compound 9, Acridin-9-yl-(3-fluorobenzyl)-amine] | 53.7% | 63.5% | 73% | 58.3% | 77.1% | 53% | 36.1% | 85.7% | 51.4% | 92.1% | 51.1% | 99.4% | 59.8% | 69.9% | 33% | 56.2% | 51% | 89.9% | 74.8% | 21.5% | inhibition at 10 µM (SK-MEL-2): 18.6%; inhibition at 10 µM (SNB-19): 64.1%; inhibition at 10 µM (SR): 80.9%; inhibition at 10 µM (T-47D): 57.3%; inhibition at 10 µM (TK-10): 35.9%; inhibition at 10 µM (UACC-62): 49.7%; inhibition at 10 µM (SF-268): 37.9%; inhibition at 10 µM (LOX IMVI): 87.7%; inhibition at 10 µM (IGROV1): 74.4%; % Inhibition at 10 µM (HCT-116): 57.06 ± 1.36%; IC50 (HCT-116; read-out: IC50 μM, 72 h MTT, means ± SD, three experiments): 7.3 ± 0.33 µM; % Inhibition at 10 µM (CCD-966SK): 42.74 ± 2.09% |
| c1ccc(CCNc2c3ccccc3nc3ccccc23)cc1 [Compound 23, Acridin-9-yl-phenethyl-amine] | 46.7% | 61.9% | 69.7% | 62% | 76.7% | 58.7% | 26.7% | 77.9% | 42.6% | 87.8% | 44.7% | 111% | 53.4% | 66.5% | 29% | 46.6% | 64.3% | 80.5% | 65.1% | 32.3% | inhibition at 10 µM (SK-MEL-2): 13.7%; inhibition at 10 µM (SNB-19): 60.5%; inhibition at 10 µM (SR): 79.1%; inhibition at 10 µM (T-47D): 51.1%; inhibition at 10 µM (TK-10): 46.8%; inhibition at 10 µM (UACC-62): 46.8%; inhibition at 10 µM (SF-268): 33.5%; inhibition at 10 µM (LOX IMVI): 82.4%; inhibition at 10 µM (IGROV1): 72%; % Inhibition at 10 µM (HCT-116): 40.12 ± 0.11%; % Inhibition at 10 µM (CCD-966SK): 11.36 ± 7.38% |
